Laboratory results: patent publication US7709488B2, “Imidazopyridine-derivatives as inducible no-synthase inhibitors” (Altana Pharma AG, priority 2003, dated 2010)

Experiments:
[1] = biological target: human inducible NO-synthase (Homo sapiens, UniProt P35228); experiment: Measurement of inducible NO-synthase activity ([3H]arginine conversion, crude cytosolic fraction); assay type: biochemical; conditions: 0.1 μM arginine, 45 to 60 min at 37° C., pH 7.2; read-out: Inhibition of iNOS activity [measured as −logIC50 (mol/l)] (converted)
Experimental: Measurement of Inducible NO-Synthase Activity
The assay is performed in 96-well microtiter F-plates (Greiner, Frickenhausen, FRG) in a total volume of 100 μl in the presence of 100 nM calmodulin, 226 μM CaCl2, 477 μM MgCl2, 5 μM flavin-adenine-dinucleotide (FAD), 5 μM flavin mononucleotide (FMN), 0.1 mM NADPH, 7 mM glutathione, 10 μM BH4 and 100 mM HEPES pH 7.2. Arginine concentrations are 0.1 μM for enzyme inhibition experiments. 150000 dpm of [^3H]arginine are added to the assay mixture. Enzyme reaction is started by the addition of 4 μg of a crude cytosolic fraction containing human inducible NO-synthase and the reaction mixture is incubated for 45 to 60 min at 37° C. Enzyme reaction is stopped by adding 10 μl of 2M MES-buffer pH 5.0. 50 μl of the incubation mixture are transferred into a MADP N65 filtration microtiter plate (Millipore, Eschbom, FRG) containing already 50 μl of AG-50W-X8 cation exchange resin (Biorad, München, FRG). The resin in the Na loaded form is pre-equilibrated in water and 70 μl (corresponding to 50 μl dry beads) are pipetted under heavy stirring with a 8 channel pipette into the filtration plate. After pipetting 50 μl of the enzyme reaction mixture onto the filtration plates, the plates are placed on a filtration manifold (Porvair, Shepperton, UK) and the flow through is collected in Pico scintillation plates (Packard, Meriden, Conn.). The resin in the filtration plates is washed with 75 μl of water (1×50 μl and 1×25 μl) which is also collected in the same plate as the sample. The total flow through of 125 μl is mixed with 175 μl of Microscint-40 scintillation cocktail (Packard) and the scintillation plate is sealed with TopSeal P-foil (Packard). Scintillation plates are counted in a scintillation counter.
For the measurement of inducible NO-synthase-inhibiting potencies of compounds increasing concentrations of inhibitors were included into the incubation mixture. IC50-values were calculated from the percent inhibition at given concentrations by nonlinear least square fitting.
The inhibitory values determined for the compounds according to the invention follow from the following table A, in which the compound numbers correspond to the example numbers.

Compound	IC50 [1]	melting point
COc1ccnc(CCc2nc3cc(-c4ccc(S(=O)(=O)N5CCN(C(C)=O)CC5)cc4)cnc3[nH]2)c1 [Compound 9, 6-[4-(4-Acetyl-piperazin-1-yl-sulfonyl)-phenyl]-2-[2-(4-methoxy-pyridin-2-yl)ethyl]-3H-imidazo[4,5-b]pyridine]	29.5 nM	138 to 140 °C
COc1ccnc(CCc2nc3cc(-c4ccc(S(=O)(=O)N5CCC(C)CC5)cc4)cnc3[nH]2)c1 [Compound 12, 2-[2(4-Methoxypyridin-2-yl)ethyl]-6-[4-(4-methyl-piperidin-1-yl-sulfonyl)-phenyl]-3H-imidazo-[4,5-b]pyridine]	25.1 nM	186 to 188 °C
COc1ccnc(CCc2nc3cc(-c4ccc(S(=O)(=O)N5CCN(Cc6ccccc6)CC5)cc4)cnc3[nH]2)c1 [Compound 2, 2-[2-(4-Methoxypyridin-2-yl)-ethyl]-6-[4-(4-benzylpiperazin-1-yl-sulfonyl)-phenyl]-3H-imidazo-[4,5-b]pyridine]	35.5 nM	160 to 162 °C
COc1ccnc(CCc2nc3cc(-c4ccc(S(=O)(=O)N(C)C)cc4C)cnc3[nH]2)c1 [Compound 23, 4-{2-[2-(4-Methoxypyridin-2-yl)ethyl]-3H-imidazo[4,5-b]pyridin-6-yl}-N,N-dimethyl-3-methyl-benzenesulfonamide]	67.6 nM	179 to 180 °C
COc1ccnc(CCc2nc3cc(-c4ccc(S(=O)(=O)NCCO)cc4)cnc3[nH]2)c1 [Compound 17, N-(2-Hydroxyethyl)-4-{2-[2-(4-methoxypyridin-2-yl)ethyl]-3H-imidazo[4,5-b]pyridin-6-yl}benzenesulfonamid]	42.7 nM	218 to 220 °C
COc1ccnc(CCc2nc3cc(-c4ccc(S(=O)(=O)NC5CCCCC5)cc4)cnc3[nH]2)c1 [Compound 20, N-Cyclohexyl-4-{2-[2-(4-methoxypyridin-2-yl)ethyl]-3H-imidazo-[4,5-b]pyridin-6-yl}benzenesulfonamid]	50.1 nM	199 to 200 °C
